Data reported in the SangsterLogP compilation.
Values belong to the molecule of their own block, whether it stands above or below them.

How the values were obtained:
[1] = not given; remark: listed apart in the source
[2] = method code SF-HPLC, from PMID: 1293941
[3] = not given; remark: listed apart in the source
[4] = not given; remark: listed apart in the source
[5] = not given; remark: listed apart in the source
[6] = method code SF-HPLC, from DOI: 10.1248/bpb.16.154, PMID: 8364451
[7] = method code SF-AS, from DOI: 10.1016/0304-4165(70)90354-5, PMID: 5474547; conditions: pH 7.4
[8] = method code SF-AS, from DOI: 10.1002/qsar.19870060104
[9] = method code SF, from DOI: 10.1016/0006-2952(79)90429-5, PMID: 444298
[10] = method code SF-HPLC, from DOI: 10.1021/jm010289a, PMID: 11754587; conditions: pH 7.0
[11] = not given; remark: listed apart in the source
[12] = method code SF-AS, from DOI: 10.1002/ps.2780370107; conditions: pH 0.0
[13] = method code SF, from PMID: 23342302; conditions: pH 7.4
[14] = method code SF, from Zheng, Y.; Wu, F.; Li, Y. (2001). Determination of ionization constant and partition coefficient of monoxidine. Journal of Shenyang Pharmaceutical University, 18(1)37-39.
[15] = method code SF-GLC, from DOI: 10.1007/bf00212402, PMID: 7663085
[16] = not given; remark: listed apart in the source
[17] = not given; remark: listed apart in the source
[18] = method code SF-AS, from DOI: 10.1021/jm00069a002, PMID: 8355246; conditions: pH 7.4
[19] = not given; remark: listed apart in the source
[20] = method code SF-AS, from DOI: 10.1002/chin.198419165, PMID: 6653771; conditions: pH 2.5
[21] = method code SF-HPLC, from DOI: 10.1016/j.bmc.2011.10.084, PMID: 22130421; conditions: pH 7.4
[22] = method code SF-AS, from DOI: 10.1007/bf01067967, PMID: 3820093; conditions: pH 7.5
[23] = method code SF-AS, from DOI: 10.1016/s0378-5173(98)00405-0, PMID: 10089287; conditions: pH 7.4
[24] = method code SF-CR, from DOI: 10.1042/bj1780443, PMID: 109087; conditions: pH 7.4
[25] = method code SF-CR+AS, from Korenman, I.; Lineva, S.; Gezikova, N. (1978). Extraction of naphthol-sulfonic acids from aqueous solution. Zh. Prikl. Khim., 51(4)869-871.
[26] = method code SF-AS, from DOI: 10.2307/3575639, PMID: 7313077; conditions: pH 7.4
[27] = method code SF-CR+AS, from Korenman, I.; Tishchenko, M.; Kombarova, A. (1977). Distribution of dihydroxynaphthalenes between higher alcohols and water. Zh. Prikl. Khim., 50(4)899-901.; conditions: pH 2.0
[28] = method code SF, from DOI: 10.1021/jm00217a007, PMID: 17751; conditions: pH 9.0
[29] = not given; remark: listed apart in the source
[30] = method code G-HPLC, from DOI: 10.6028/nbs.ir.81-2406
[31] = not given; remark: listed apart in the source
[32] = method code SF, from DOI: 10.1248/cpb.33.282, PMID: 4006019; conditions: pH 1.0
[33] = method code SF, from DOI: 10.1021/jm00010a006, PMID: 7752187
[34] = not given; remark: listed apart in the source
[35] = method code SF, from DOI: 10.1016/0021-9673(91)85016-9; conditions: pH 7.0
[36] = method code SF-AS, from DOI: 10.5012/bkcs.2007.28.7.1183
[37] = method code …, from Wang, X.; Song, H. (1996). Determination of octanol-water partition coefficients of organic pollutants by using the dynamic coupled-column liquid chromatographic technique. Transactions of Tianjin …
[38] = method code SF-GLC, from Hermens, J., & De Bruijn, J. (1987). A QSAR study for fish toxicity data of organophosphorus compounds. QSAR in Drug Design and Toxicology, 10, 343-345.
[39] = not given; remark: listed apart in the source
[40] = method code SF-HPLC, from DOI: 10.1124/dmd.30.12.1497, PMID: 12433825; conditions: pH 7.4
[41] = from Bundgaard, H.; Hansen, A.; Larsen, C. (1979). Prodrugs as drug delivery systems. VII. Rapid cyclization of methyldiethylthiomalonurate to thiobarbital in aqueous solution. Archiv der Pharmazie - …; conditions: pH 3.5
[42] = method code SF, from DOI: 10.1515/bc.2002.085, PMID: 12108546
[43] = method code SF-GLC, from DOI: 10.1016/0147-6513(82)90020-3, PMID: 7106034
[44] = method code SF-AS, from DOI: 10.1111/j.2042-7158.1984.tb04385.x, PMID: 6145771; conditions: pH 9.2
[45] = method code SF-AS, from Korenman, Y.; Pazynin, T. (1972). Distribution of nitrosonaphthols between organic solvents and water. J. anal. chem. USSR, 27(4)723-725.; conditions: pH 2.0
[46] = not given; remark: listed apart in the source
[47] = method code SF, from DOI: 10.1002/jps.2600620102, PMID: 4566530
[48] = not given; remark: listed apart in the source
[49] = method code SF-AS, from DOI: 10.1021/es00082a014; conditions: pH 7.0

SMILES: CCCCCCCCO
logP: 3

SMILES: CC(C)Nc1nc(Cl)nc(NC2CC2)n1
logP [1]: 3.06

SMILES: CCNc1nc(Cl)nc(NC(C)(C)C#N)n1
logP [3]: 2.18

SMILES: CCOP(=S)(OCC)Oc1nc(Cl)c(Cl)cc1Cl
logP [4]: 4.77

SMILES: O=NN(CCCl)C(=O)N[C@@H]1O[C@H](CO)[C@@H](O)[C@H](O)[C@H]1O
logP [9]: -1.02

SMILES: CCOP(=O)(O)Cc1ccc(Cl)cc1
logD [12]: 1.6

SMILES: ClC1=C(Cl)[C@]2(Cl)C3C(Cl)C(Cl)C(Cl)C3[C@@]1(Cl)C2(Cl)Cl (stereo not given in full)
logP [15]: 6.22

SMILES: CC(Oc1ccc(Cl)cc1Cl)C(=O)O (stereo not given)
logP [16]: 3.43

SMILES: CNC(=O)c1cc(N2CC2)c([N+](=O)[O-])cc1[N+](=O)[O-]
logD [26]: 0.44

SMILES: CNC(=S)NCCCCc1c[nH]cn1
logD [28]: 0.51

SMILES: CCCCCC(CCO)C1N=N1 (stereo not given)
logP [29]: 2.52

SMILES: CCCCCC(=O)N(C)CC(=O)O
logD [32]: 1.14

SMILES: ClC1(Cl)C2(Cl)C3(Cl)C4(Cl)C(Cl)(Cl)C5(Cl)C3(Cl)C1(Cl)C5(Cl)C24Cl (stereo not given)
logP [37]: 6.69

SMILES: COP(=S)(OC)Oc1ccc(Cl)cc1C#N
logP [38]: 3.41

SMILES: COc1c(Cl)c(Cl)c(Cl)c(OC)c1OC
logP [39]: 4.8

SMILES: CCC(CC)(C(=O)NC(N)=S)C(=O)OC
logD [41]: 1.82

SMILES: CCCOC(=O)C1(C)CCC=[N+]1[O-] (stereo not given)
logP [42]: -0.3

SMILES: CCCCOCCOCCSC#N
logP [43]: 1.68

SMILES: CNC(=S)NCCSCc1cncn1C
logD [44]: 0.32

SMILES: Cc1cc(C)c(N)cc1C
logD [49]: 2.29

Next, values leading:

logP [2]: 1.87
SMILES: CCOC(=O)c1ccc(N)cc1

logP [5]: 0.88
SMILES: NC(=O)c1cn(Cc2c(F)cccc2F)nn1

logP [6]: 0.95
SMILES: O=C(O)CNC(=O)c1ccccc1O

logD [7]: 2.53
SMILES: Cc1cc2ccccc2[nH]1

logP [8]: 1.44
SMILES: O=c1ccoc2cc(O)ccc12

logD [10]: 0.63
SMILES: CN1C(=O)C(=O)c2ccccc21

logP [11]: 2.31
SMILES: CCCOc1ccc(O)cc1

logD [13]: -0.87
SMILES: Cc1c(COC(CO)CF)[nH]c(=O)[nH]c1=O (stereo not given)

logP [14]: 1.08
SMILES: COc1nc(C)nc(Cl)c1NC1=NCCN1

logP [17]: 3.13
SMILES: CCCCc1ccncc1

logD [18]: 0.05
SMILES: Cc1c(O)c(=O)ccn1C(C)C

logP [19]: 4.34
SMILES: Clc1cc(Cl)cc(C2(CC(Cl)(Cl)Cl)CO2)c1 (stereo not given)

logD [20]: 1.75
SMILES: N#CCNc1ccccc1C(=O)O

logD [21]: -0.38
SMILES: Cc1ncc([N+](=O)[O-])n1Cc1cn(CCF)nn1

logD [22]: 2.4
SMILES: CCCc1ccc(N)cc1

logD [23]: 1.14
SMILES: Cc1nc2ccccn2c(=O)c1C

logD [24]: 1.9
SMILES: Cc1cc(=O)oc2cc(O)ccc12

logP [25]: -0.44
SMILES: O=S(=O)(O)c1ccc(O)c2ccccc12

logD [27]: 1.94
SMILES: Oc1ccc2cccc(O)c2c1

logP [30]: 2.67
SMILES: Cc1ccc(C)c(O)c1C

logP [31]: 2.23
SMILES: CCOC(=O)c1ccccc1O

logP [33]: 0.74
SMILES: c1ccc(Cn2cnnc2)cc1

logP [34]: 2.25
SMILES: CCOC(=O)c1ccc(O)cc1

logD [35]: -2.85
SMILES: O=c1ccn2c(n1)OC1C(O)C(CO)OC12 (stereo not given)

logP [36]: 0.25
SMILES: Nc1ccc(S(=O)(=O)Nc2cnc(Cl)cn2)cc1

logD [40]: 1.34
SMILES: CCOc1ccccc1C(N)=O

logD [45]: 2.57
SMILES: O=Nc1ccc2ccccc2c1O

logP [46]: 1.53
SMILES: O=C(O)/C=C/C(=O)c1ccccc1

logP [47]: 3.25
SMILES: Cc1cc(C)c2oc(=O)sc2c1

logP [48]: 1.85
SMILES: COc1cc(O)cc(C(C)=O)c1
